Consider three compounds from patent US7138145B2, “Method and apparatus for ozination of grain” (priority 2001, dated 2006).

Assay [1] deals with insects. The note with it: fumigation of the grain; cited from earlier work.
For assay [2], the system named is mold, fungus, and some bacteria. Conditions: fumigation of the grain; cited from earlier work.
In assay [3] the test system is insects. As to the kind of experiment: ozonation of grain stored in an elevator: killing of insects. The source says: (§1) It is an object of some embodiments of the present invention to provide a method for treating grain for fungus, mold, bacteria, dust, and insects by exposing the grain to a high concentration of ozone for an extended period of time. The present invention utilizes a powerful fan or fans placed at the bottom of the grain storage facility such as, for example, a silo or grain elevator to draw down through the grain a flow of gas containing ozone between 50 and 100 ppm. Ozone generators placed in the head space at the top of the elevator produce ozone in a concentration in excess of 100 ppm. Monitors placed in this head space assure that the ozone concentration remains at these levels. If the ozone generators are not capable of maintaining the concentration at 100 ppm in the head space, then the draw is reduced by slowing the fan speed. A duct takes drawn gases from the bottom of the elevator and re-circulates those gases into the head space to reduce the amount of ozone needed to be generated during a second pass. To assure that the gases come in contact with all of the grain in the elevator, a technique labeled “pulling the core” is utilized wherein a quantity of grain is removed from the bottom of the elevator at its center to remove a column of grain from the core of the column of grain thereby evenly distribute the grain within the elevator. The material which is pulled from the core is then sent back to the top of the column and evenly distributed across the top.
(§2) The following discussion is directed towards grain stored within a vertical elevator 10. […] In one embodiment, a quantity of ozone is injected into a grain bin, vessel, or truck prior to the grain being loaded into said container in order to treat the grain for mold, bacteria, fungi, and biological load as the grain is loaded. […] In this embodiment, the loading bin is partially enclosed and has injected therein a sufficient quantity of ozone to create a concentration of approximately 100 ppm within the loading bin and the enclosed auger. […]

Assay [4] relates to mold, bacteria, and fungus. As to the kind of experiment: ozonation of grain stored in an elevator: treatment of mold, bacteria and fungus.
From the text: as §1, §2

Where [5] appears, read: flow of gas containing ozone between 50 and 100 ppm.
[6] abbreviates: ozone concentration maintained for three days.
[7] abbreviates: ozone drawn through grain, over 100 ppm in head space, 50 ppm at bottom of column.

The structures appear in SMILES notation.

On to `P` [phosphine], for which, in the assay with insects [1], the “effect of fumigation on insects” value is “effective at killing insects”. In assay [2], the “effect of fumigation on mold, fungus and some bacteria” value is on record as “not been effective”.

As to `CBr` [methyl bromide], the “effect of fumigation on insects” value in the assay on insects [1] is reported as “effective at killing insects”. Also, the “effect of fumigation on mold, fungus and some bacteria” value in assay [2] is on record as “not been effective”.

As for `O=[O+][O-]` [ozone], the “time within which some insects begin to die” value in the assay with insects [3] (setting [5]) is reported as “twenty-four”. Further, the destruction of insects result with insects [3] (setting [6]) was “almost all insect, mold, bacteria, and fungus will be destroyed”. Moreover, the “exposure after which some insects are killed” value in the assay on insects [3] (setting [7]) turned out to be 12 h. For the same compound, the “time within which mold and bacteria begin to die” value in assay [4] (setting [5]) was “twenty-four”. For the same compound, the “destruction of mold, bacteria and fungus” value in assay [4] (setting [6]) was “almost all insect, mold, bacteria, and fungus will be destroyed”. In addition, in assay [4] (setting [7]), the “time after which smell from mold and fungus disappears” value stood at 24 h.
